According to patent US10610602B2, “Tumor cell-specific responsive self-assembling drug nanoconjugate” (KOREA INSTITUTE OF SCIENCE AND TECHNOLOGY, priority 2017, dated 2020):
Entries after “also recorded” stand apart in the source; their conditions may differ. Like-named read-outs stand apart in the source and are kept apart here. Residues, ends and D or L forms follow the SMILES beside them. No end group written: not given here. *: point of attachment. Doxorubicin(3'-N) = COc1cccc2c1C(=O)c1c(O)c3c(c(O)c1C2=O)C[C@@](O)(C(=O)CO)C[C@@H]3O[C@H]1C[C@H](N*)[C@H](O)[C@H](C)O1

Key:
[1] = system: H9C2 cells (normal cells); format: cell-based, Rattus
Experimental: (§1) First, HT-29 cells were plated in a 96-well plate at a density of 1×10^4 cells/well. […] Then, […] of CCK solution was added to each well. After further culture for 30 min, the absorbance of each 96-well plate at 450 nm was analyzed using a microplate reader (VERSAmax™, Molecular Devices Corp., Sunnyvale, Calif.). For comparison, the cell viabilities (%) of H9C2 cells (normal cells) were measured in the same manner as described above.

[2] = rat, in vivo
HT29 tumor [3] = experiment: Doxorubicin accumulation in tumor tissues after intravenous administration, near-infrared fluorescence
Experimental: (§2) In this example, the in vivo anticancer effects of doxorubicin (Free DOX) and FRRG-DOX (SEQ ID NO: 7) of Example 1 were investigated. First, 1×10^7 HT-29 cells were directly injected into the right flank of each tumor animal model constructed in 1) (n=4 per group). When the tumor size reached ˜250-300 mm3, doxorubicin (Free DOX, 5 mg/kg) and FRRG DOX (SEQ ID NO: 7) of Example 1 (5 mg/kg) were administered intravenously once every three days for 15 days.
(§3) The therapeutic efficacies of Free DOX, FRRG-DOX (SEQ ID NO: 7), and the control were compared by measuring the tumor volumes (maximum diameter×minimum diameter 2×0.53) for 15 days. The viabilities and weights of the tumor animal models were measured once a day for 15 days. The accumulations of Free DOX and FRRG-DOX (SEQ ID NO: 7) in the tumor tissues of the tumor animal models were monitored using IVIS Lumina Series III (PerkinElmer, Massachusetts, USA). The fluorescence intensities of Free DOX and FRRG-DOX (SEQ ID NO: 7) in the tumor tissues were quantified using the Living Image software (PerkinElmer, Massachusetts, USA).

[4] = Non-enzymatic hydrolysis in PBS buffer only, HPLC; format: physicochemical; details: 37° C., 9 h
Experimental: The drug conjugate of Example 1 was allowed to react with other enzymes (10 μg/ml cathepsins D, E, and L) and PBS buffer only (in this case, a non-enzymatic hydrolysis product was obtained) and the reaction products were analyzed by HPLC at 37° C. for 9 h.

HT29 tumor [5] = details: for viability (survival rate) of animal tumor models: for 16 days, FIG. 4C; for apoptosis in organ tissues (annexin V staining): heart, spleen, tumor tissues, FIG. 4D
Experimental: as §2, with “˜200 mm^3,” for “˜250-300 mm3,”, “by tail vein injection” for “intravenously”
as §3
Annexin V staining was performed to confirm that apoptosis occurred in tumor tissues excised from the tumor animal models. First, section slides (10 μm) of the excised tumor tissues were washed three times with DPBS, incubated with annexin V solution (200 μl of a binding buffer containing 5 μl of annexin V-Cy5.5) at 37° C. for 20 min, incubated with DAPI at room temperature for 15 min, placed on cover glass, and observed under a confocal laser microscope.

hiPSC-CMs = experiment: Multi-electrode array (MEA) analysis; format: cell-based, human; details: FRRG-DOX 0.2 μM; doxorubicin 0.1 μM; compared to the baseline
Experimental: Multi-electrode array analysis was conducted by the following procedure. First, human induced pluripotent stem cell-derived cardiomyocytes (hiPSC-CMs, Cellular Dynamics International [CDI], Madison, Wis., USA) were thawed in a 100 mm culture dish. After 1 week, the thawed hiPSC-CMs were plated in an MEA plate coated with fibronectin solution (50 μg/ml). On day 2 after thawing, the plating medium was replaced with a maintenance medium (CDI). Maintenance media were replaced with new ones every 2-3 days. Only 50% of the culture media were replaced with new ones. 2 weeks after plating in the plate, field potentials of spontaneously beating cardiomyocytes were recorded using a Maestro system (Axion Biosystems Inc., Atlanta, Ga., USA). The waveforms of the extracellular field potentials were recorded 10 min after the equilibration period. Inter-spike interval and extracellular field potential duration (FPD) were analyzed and quantified. To minimize the influence of the beat rate on FPD, corrected FPD (FPDcF) was calculated using Fridericia's formula 1: FPDcF=FPD/[inter−spike interval]1/3 (1)

[6] = Heart damage markers in blood samples; details: versus control (saline), FIG. 4E
[7] = Electrocardiography (ECG) analysis; format: in vivo, ICR mice; details: intravenous; 5 mg/kg doxorubicin or 10 mg/kg FRRG-doxorubicin; versus control
Experimental: ECG analysis was performed under the approval of the Institutional Animal Care and Use Committee at the Korea Institute of Toxicology. All procedures were performed according to the National Institutes of Health guidelines for the care and use of laboratory animals. A mixture of isoflourane and oxygen as an anaesthetic gas was injected at a rate of 2 cc/min to ICR mice (25-35 g, Orient Bio Inc., Seoul, Korea). ECG was measured before injection of the anaesthetic gas into an animal bio amp (ADinstruments Pty Ltd, Bella Vista, Australia). The measured ECG was defined as baseline. For 6 h after injection of the anaesthetic gas, ECG was measured. All mice were injected intravenously with saline, 5 mg/kg doxorubicin (in saline) or 10 mg/kg FRRG-doxorubicin (SEQ ID NO: 7) (Example 1) (in saline). The measured ECG data were analyzed using the LabChart 8 software (ADinstruments Pty Ltd, Bella Vista, Australia). Corrected QT (QTc) was calculated using Van de Water's formula 2 and Bazett's formula 3: QTc−V=0.087[(60/HR)−1] (2) QTc−B=QT/(RR)1/2 (3)

cells = experiment: Cellular and nuclear uptake of drug conjugates of Examples 2-4, confocal microscopy; format: cell-based; details: for absorption into cells / antitumor effects or intracellular uptake effects: FIGS. 5C and 5D
Description: In FIG. 5D, “Cytosol “and “Nucleus” indicate the fluorescence intensities of DOX measured in cytosol and cell nuclei, respectively.

[8] = Nanoparticle size by dynamic light scattering; format: physicochemical; details: FIG. 5B
Experimental: The size distribution was measured using Zetasizer Nano ZS (Malvern Instruments, Worcestershire, U.K).

HT-29 cells = experiment: In vitro cell viability (CCK); format: cell-based, human; details: HT29, FIG. 5E
Experimental: as §1

[9] = 5 mg/kg tail vein once every three days for 15 days
[10] = intravenous, DAPI-stained tissue sections, FIG. 3G

Compound | toxicity to normal cells in tumor animal models (HT29 tumor [5]; [9]) | viability (survival rate) of animal tumor models (HT29 tumor [5]) | apoptosis in organ tissues (annexin V staining) (HT29 tumor [5]) | FPD (hiPSC-CMs) | FPDcF (hiPSC-CMs) | doxorubicin accumulation in tumor tissues (HT29 tumor [3]; [10]) | absorption into cells (cells) | antitumor effects or intracellular uptake effects (cells) | measured sizes of the nanoparticles [8] | further results
COc1cccc2c1C(=O)c1c(O)c3c(c(O)c1C2=O)C[C@@](O)(C(=O)CO)C[C@@H]3O[C@H]1C[C@H](NC(=O)CNC(=O)[C@H](CCCNC(=N)N)NC(=O)[C@H](CCCNC(=N)N)NC(=O)[C@H](Cc2ccccc2)NC(C)=O)[C@H](O)[C@H](C)O1 [FRRG-DOX] (Ac-FRRG-{Doxorubicin(3'-N)}) | no toxicity was observed | 100% | apoptosis was observed only in the tumor tissues | remained substantially unchanged | remained substantially unchanged |  |  |  |  | cell viability compared with group treated with doxorubicin alone (Free DOX) [1]: significant difference in cell viability; levels of markers indicative of heart damage (hs troponin-T, Troponin-I, CK-MM, CPK total) [2]: about two times lower than or comparable to those in the control; doxorubicin accumulation in tumor tissues (HT29 tumor [3]; mouse, in vivo, iv): doxorubicin was accumulated in the tumor tissues; stability in phosphate buffered saline [4]: very stable in phosphate buffered saline
COc1cccc2c1C(=O)c1c(O)c3c(c(O)c1C2=O)C[C@@](O)(C(=O)CO)C[C@@H]3O[C@H]1C[C@H](NC(=O)CNC(=O)[C@H](CCCNC(=N)N)NC(=O)[C@H](CCCNC(=N)N)NC(C)=O)[C@H](O)[C@H](C)O1 [RRG-DOX] |  |  |  |  |  | could not be effectively accumulated in tissues |  |  |  | fluorescence intensity of doxorubicin in excised tumor tissues (HT29 tumor [3]; 5 mg/kg intravenous, FIG. 3E/3F): low fluorescence intensity
COc1cccc2c1C(=O)c1c(O)c3c(c(O)c1C2=O)C[C@@](O)(C(=O)CO)C[C@@H]3O[C@H]1C[C@H](N)[C@H](O)[C@H](C)O1 [doxorubicin] | Toxicity to normal cells was observed | mortality began to increase rapidly | apoptosis was observed in all of the heart, spleen, and tumor tissues | significantly low compared to the baseline | significantly low compared to the baseline | could not be effectively accumulated in tissues |  |  |  | levels of markers indicative of heart damage (hs troponin-T, Troponin-I, CK-MM, CPK total) [6]: higher levels of all markers; weight of the tumor animal models (HT29 tumor [5]; 5 mg/kg tail vein once every three days): began to decrease; inhibition of tumor growth (tumor volume) (HT29 tumor [5]; [9]): significantly inhibit tumor growth; QTc values [7]: extended compared to those measured in the control
FRRGGGGG-DOX (FRRGGGGG-doxorubicin) |  |  |  |  |  |  | not readily absorbed into cells | showed antitumor effects or intracellular uptake effects | 300-700 nm | 
GGFRRGGG-DOX (GGFRRGGG-doxorubicin) |  |  |  |  |  |  | readily absorbed into cells | showed antitumor effects or intracellular uptake effects | 50-200 nm | uptake into cell nuclei relative to drug conjugates of Examples 1 and 2 (cells; FIG. 5D): 10 times lower
GGGGFRRG-DOX (GGGGFRRG-doxorubicin) |  |  |  |  |  |  |  | showed antitumor effects or intracellular uptake effects | 200-600 nm | antitumor effect (cell viability of HT29) (HT-29 cells): same antitumor effect as DOX; also recorded: most effective in antitumor action
